19 compounds from patent US20250122221A1 (NANJING ZAIMING PHARMACEUTICAL CO., LTD., priority 2022, published 2025) can be followed below.

Experiment [1] concerns the target N-terminal active peptide segment (MI-N899) of POLQ with ATPase activity (Homo sapiens (Human), UniProt O75417). Briefly: POLQ enzyme activity inhibition experiment (ATPase, NADH-coupled, OD 340 nm). Type of experiment: biochemical. To be noted: 100 nM POLQ (N), 100 μM ATP, 300 nM dT50. As for the experimental part:
The Envision microplate reader from Perkin Elmer Inc was used to measure the reduction of OD value of NADH at 340 nm, thus reflecting the enzyme activity. Experimental method: The POLQ enzyme was diluted to 100 nM with a reaction buffer (20 mM Tris HCl (pH 7.80), 80 mM KCl, 10 mM MgCl2, 1 mM DTT, 0.01% w/v bovine serum albumin, 0.01% v/v Tween-20, and 5% v/v glycerol). The compounds to be tested were diluted to different concentrations in dimethyl sulfoxide (DMSO) using the Echo 650 pipetting system, and transferred to a 384-well plate, 20 μL/well of 100 nM POLQ was added, and the mixture was incubated at room temperature for 15 minutes. A reaction mixture solution was formulated, and the concentration of each component in the reaction mixture solution was: 100 μM ATP, 300 nM […], 300 μM NADH, 6 mM PEP, 10 U/mL lactate dehydrogenase and 20 U/mL pyruvate kinase. 20 μL/well of reaction mixture solution was added to start the enzyme reaction. […] The concentration range was from 10 μM to 0.0005 μM, and the final concentration of DMSO in the system was 0.2% v/v. The 384-well plate was reacted at room temperature for 20 minutes, and then the OD value at 340 nm was read with an Envision microplate reader. The inhibition rate was calculated, and XLfit software was used to perform fitting to obtain IC50 of the compounds. In the experiment, a blank group and a DMSO group were set up, respectively.

The test system of experiment [2] is DLD-1 parental cells. Kind of experiment: Inhibition of tumour cell proliferation, 7 days, CTG. Type of experiment: cell-based. The following applies: Homo sapiens, read-out: DLD-1 parental cell IC50. The method, then:
(§1) Brief introduction to the experimental principle: The compounds were co-incubated with tumour cells for 7 days, and then a CTG kit from Promega Inc was used to quantify ATP in viable cells, thus reflecting the effect of the compounds on tumour cell proliferation.
(§2) Experimental method: DLD-1 parental cells or DLD-1 BRCA2 (−/−) cells were diluted with RPMI 1640 medium containing 10% FBS, and then added to a 96-well plate (90 μL/well), with the number of cells being 600 cells/well or 1200 cells/well, respectively, and cultured overnight in a 37° C., 5% CO2 incubator. The compounds to be tested were diluted to different concentrations in dimethyl sulfoxide (DMSO), and then added to a 96-well plate. The final concentration of the compounds in the reaction system started from 25 μM, and was subjected to 4-fold gradient dilution. The concentration range of the compounds was from 25 μM to 0.0004 μM, and the final concentration of DMSO was 0.25% v/v. After 7 days of incubation, 50 μL/well CTG was added, and the mixture was incubated at room temperature for 10 minutes. Subsequently, the luminescence (Lum) signal value was read with an Envision microplate reader, and the inhibition rate and half inhibitory concentration (IC50) were calculated.
(§3) The inhibition rate was calculated, and XLfit software was used to perform fitting to obtain IC50 of the compounds.
(§4) In the experiment, a blank well and a DMSO well were set up, respectively.
(§5) Inhibition rate=100*(Lummax−Lumcompound)/(Lummax−Lummin)%, • where Lummax refers to the luminescence signal value of the well containing cells and 0.25% v/v DMSO; Lumcompound refers to the luminescence signal value of the well containing the compound and cells; and Lummin refers to the luminescence signal value of the well containing the medium and 0.25% v/v DMSO.

In experiment [3] the test system is DLD-1 BRCA2 (−/−) cells. The description is as above. The format is cell-based. To be noted: Homo sapiens, read-out: DLD-1 BRCA2 (−/−) IC50. As for the experimental part:
as §1, §2, §3, §4, §5

The mark [4] stands for this setting: 168 h, DLD-1 parental cells, 7 days of incubation, CTG.
[5] abbreviates: 168 h, DLD-1 BRCA2 (−/−) cells, 7 days of incubation, CTG.

Where two headings read alike, the source gives them in different places. Where only a bound is given, the exact number is not on record here.

Chain of N-terminal active peptide segment (MI-N899) of POLQ with ATPase activity (O75417 1-899 limits assumed): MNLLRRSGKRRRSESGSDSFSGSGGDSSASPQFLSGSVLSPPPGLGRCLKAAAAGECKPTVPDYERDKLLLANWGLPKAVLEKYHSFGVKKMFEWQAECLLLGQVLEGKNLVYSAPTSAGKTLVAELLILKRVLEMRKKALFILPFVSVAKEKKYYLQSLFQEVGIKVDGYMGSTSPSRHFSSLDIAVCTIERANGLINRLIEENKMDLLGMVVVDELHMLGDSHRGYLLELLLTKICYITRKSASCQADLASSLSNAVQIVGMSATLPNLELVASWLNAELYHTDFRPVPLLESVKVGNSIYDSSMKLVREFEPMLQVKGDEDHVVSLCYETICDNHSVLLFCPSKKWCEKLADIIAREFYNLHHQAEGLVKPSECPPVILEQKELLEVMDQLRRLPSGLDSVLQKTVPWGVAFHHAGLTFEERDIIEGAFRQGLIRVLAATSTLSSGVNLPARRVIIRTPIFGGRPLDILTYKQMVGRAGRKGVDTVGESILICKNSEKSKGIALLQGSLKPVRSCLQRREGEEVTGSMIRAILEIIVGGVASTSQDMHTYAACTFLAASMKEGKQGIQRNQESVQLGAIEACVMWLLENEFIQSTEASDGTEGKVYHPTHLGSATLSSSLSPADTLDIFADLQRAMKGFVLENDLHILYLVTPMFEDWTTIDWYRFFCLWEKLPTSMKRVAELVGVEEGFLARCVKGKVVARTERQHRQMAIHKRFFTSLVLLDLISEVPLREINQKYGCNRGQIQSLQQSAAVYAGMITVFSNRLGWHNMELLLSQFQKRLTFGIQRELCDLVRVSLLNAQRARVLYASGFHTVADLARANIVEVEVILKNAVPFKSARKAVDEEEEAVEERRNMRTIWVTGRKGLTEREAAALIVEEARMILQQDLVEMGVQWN

As for `Cc1cc(-c2cc(Cl)ccc2Cl)c(C(=O)Nc2nc3ncc(-c4ccc(C#N)cc4)nc3s2)cn1` [Compound 87, N-(6-(4-cyanophenyl)thiazolo[4,5-b]pyrazin-2-yl)-4-(2,5-dichlorophenyl)-6-methylpyridine-3-carboxamide], the IC50 in experiment [1] was below 100 nM; in experiment [2] (setting [4]), above 10000 nM; in experiment [3] (setting [5]), below 200 nM.
In the case of `COc1cnc(Cl)cc1-c1cc(C)ncc1C(=O)Nc1nc2ncc(-c3ccc(C#N)cn3)nc2s1` [Compound 61, N-(6-(5-cyanopyridin-2-yl)thiazolo[4,5-b]pyrazin-2-yl)-2′-chloro-5′-methoxy-6-methyl-[4,4-bipyridine]-3-carboxamide], the figures for the IC50 in experiment [1], in experiment [2] (setting [4]) and in experiment [3] (setting [5]) were below 100 nM, above 10000 nM and below 200 nM, respectively.
Consider `C#Cc1ccccc1-c1cc(C)ncc1C(=O)Nc1nc2ncc(-c3ccc(C#N)cc3)nc2s1` [Compound 42, N-(6-(4-cyanophenyl)thiazolo[4,5-b]pyrazin-2-yl)-4-(2-ethynylphenyl)-6-methylpyridine-3-carboxamide], for which the IC50 in experiment [1] was below 100 nM; in experiment [2] (setting [4]), above 10000 nM; in experiment [3] (setting [5]), 200 to 500 nM.
For `Cc1cc(-c2cc(Cl)ccc2OC2CC2)c(C(=O)Nc2nc3ncc(-c4ccc(C#N)cc4)nc3s2)cn1` [Compound 94, 4-(5-chloro-2-cyclopropoxyphenyl)-N-(6-(4-cyanophenyl)thiazolo[4,5-b]pyrazin-2-yl)-6-methylpyridine-3-carboxamide], the IC50 is below 100 nM in experiment [1]; above 10000 nM in experiment [2] (DLD-1, 168 h); below 200 nM in experiment [3] (DLD-1, 168 h).
As for `COc1cnc(C)cc1-c1cc(C)ncc1C(=O)Nc1nc2ncc(-c3ccc(C(C)(C)C#N)cn3)nc2s1` [Compound 68, N-[6-[5-(1-cyano-1-methyl-ethyl)pyridin-2-yl]thiazolo[4,5-b]pyrazin-2-yl]-4-(5-methoxy-2-methylpyridine-4-yl)-6-methyl-pyridine-3-carboxamide], the IC50 in experiment [1] is below 100 nM; in experiment [2] (setting [4]), above 10000 nM; in experiment [3] (setting [5]), below 200 nM.
Regarding `COc1ccc(Cl)cc1-c1cc(C)ncc1C(=O)Nc1nc2ncc(-c3ccc(C(C)(C)O)cn3)nc2s1` [Compound 78, 4-(5-chloro-2-methoxyphenyl)-N-(6-(5-(2-hydroxyprop-2-yl)pyridin-2-yl)thiazolo[4,5-b]pyrazin-2-yl)-6-methylpyridine-3-carboxamide], the IC50 in experiment [1] is below 100 nM; in experiment [2] (setting [4]), above 10000 nM; in experiment [3] (setting [5]), below 200 nM.
Taken in the same sequence, the figures for `COc1ccc(Cl)cc1-c1cc(C)ncc1C(=O)Nc1nc2ncc(-c3ccc(C#N)cn3)nc2s1` [Compound 26, 4-(5-chloro-2-methoxyphenyl)-N-(6-(5-cyanopyridin-2-yl)thiazolo[4,5-b]pyrazin-2-yl)-6-methylnicotinamide] were below 100 nM, above 10000 nM and below 200 nM.
For `COc1ccc(Cl)cc1-c1cc(C)ncc1C(=O)Nc1nc2ncc(-c3ccc(C4CC4)cc3)nc2s1` [Compound 79, 4-(5-chloro-2-methoxyphenyl)-N-(6-(4-cyclopropylphenyl)thiazolo[4,5-b]pyrazin-2-yl)-6-methylpyridine-3-carboxamide], the IC50 in experiment [1] was below 100 nM; in experiment [2] (setting [4]), above 10000 nM; in experiment [3] (setting [5]) it was below 200 nM.
On to `COc1cnc(C2CC2)cc1-c1cc(C)ncc1C(=O)Nc1nc2ncc(-c3ccc(C4CC4)cc3)nc2s1` [Compound 83, 2′-cyclopropyl-N-(6-(4-cyclopropylphenyl)thiazolo[4,5-b]pyrazin-2-yl)-5′-methoxy-6-methyl-[4,4′-bipyridine]-3-carboxamide], for which the IC50 was below 100 nM in experiment [1], above 10000 nM in experiment [2] (setting [4]) and below 200 nM in experiment [3] (setting [5]).
As to `COc1ccccc1-c1ccncc1C(=O)Nc1nc2ncc(-c3ccc(C#N)cc3)nc2s1` [Compound 16, N-(6-(4-cyanophenyl)thiazolo[4,5-b]pyrazin-2-yl)-4-(2-methoxyphenyl)nicotinamide], the IC50 in experiment [1] was below 100 nM; in experiment [2] (setting [4]), above 10000 nM; in experiment [3] (setting [5]) it was 200 to 500 nM.
Turning to `C#Cc1ccc(F)cc1-c1cc(C)ncc1C(=O)Nc1nc2ncc(-c3ccc(C#N)cc3)nc2s1` [Compound 48, N-(6-(4-cyanophenyl)thiazolo[4,5-b]pyrazin-2-yl)-4-(2-ethynyl-5-fluorophenyl)-6-methylpyridine-3-carboxamide], the IC50 in experiment [1] is below 100 nM; in experiment [2] (setting [4]), above 10000 nM; in experiment [3] (setting [5]), 200 to 500 nM.
In the same order, the values of `COc1cnc(C2CC2)cc1-c1cc(C)ncc1C(=O)Nc1nc2ncc(-c3ccc(C#N)cc3)nc2s1` [Compound 72, N-(6-(4-cyanophenyl)thiazolo[4,5-b]pyrazin-2-yl)-2′-cyclopropyl-5′-methoxy-6-methyl-[4,4′-bipyridine]-3-carboxamide] are below 100 nM, above 10000 nM and below 200 nM.
In the same order, the values of `COc1cnc(C)cc1-c1cc(C)ccc1C(=O)Nc1nc2ncc(-c3ccc(C#N)cc3)nc2s1` [Compound 92, N-(6-(4-cyanophenyl)thiazolo[4,5-b]pyrazin-2-yl)-2-(5-methoxy-2-methylpyridine-4-yl)-4-methylbenzamide] are below 100 nM, above 10000 nM and below 200 nM.
In the same order, the values of `COc1ccc(C2CC2)cc1-c1cc(C)ncc1C(=O)Nc1nc2ncc(-c3ccc(C#N)cc3)nc2s1` [Compound 84, N-(6-(4-cyanophenyl)thiazolo[4,5-b]pyrazin-2-yl)-4-(5-cyclopropyl-2-methoxyphenyl)-6-methylpyridine-3-carboxamide] are below 100 nM, above 10000 nM and below 200 nM.
For `COc1ccc(C(F)(F)F)cc1-c1cc(C)ncc1C(=O)Nc1nc2ncc(-c3ccc(C#N)cc3)nc2s1` [Compound 86, N-(6-(4-cyanophenyl)thiazolo[4,5-b]pyrazin-2-yl)-4-(2-methoxy-5-(trifluoromethyl)phenyl)-6-methylpyridine-3-carboxamide], the IC50 in experiment [1] was below 100 nM; in experiment [2] (setting [4]), above 10000 nM; in experiment [3] (setting [5]), below 200 nM.
Turning to `COc1ccc(Cl)cc1-c1cc(C)ncc1C(=O)Nc1nc2ncc(-c3ccc(OC(F)F)cc3)nc2s1` [Compound 80, 4-(5-chloro-2-methoxyphenyl)-N-(6-(4-(difluoromethoxy)phenyl)thiazolo[4,5-b]pyrazin-2-yl)-6-methylpyridine-3-carboxamide], the IC50 in experiment [1] was below 100 nM; in experiment [2] (setting [4]) it was above 10000 nM; in experiment [3] (setting [5]), below 200 nM.
In the case of `C#Cc1cc(F)ccc1-c1cc(C)ncc1C(=O)Nc1nc2ncc(-c3ccc(C#N)cc3)nc2s1` [Compound 47, N-(6-(4-cyanophenyl)thiazolo[4,5-b]pyrazin-2-yl)-4-(2-ethynyl-4-fluorophenyl)-6-methylpyridine-3-carboxamide], the IC50 in experiment [1] is below 100 nM.
`N#Cc1ccc(-c2cnc3nc(NC(=O)c4cnc(C#N)cc4N4CCOCC4)sc3n2)cc1` [Compound 39, 6-cyano-N-(6-(4-cyanophenyl)thiazolo[4,5-b]pyrazin-2-yl)-4-morpholinopyridine-3-carboxamide]: the IC50 in experiment [1] was below 100 nM.
`COc1cnc(C)cc1-c1cc(C)ncc1C(=O)Nc1nc2ncc(-c3ccc(C#N)cc3F)nc2s1` [Compound 70, N-(6-(4-cyano-2-fluorophenyl)thiazolo[4,5-b]pyrazin-2-yl)-5′-methoxy-2′,6-dimethyl-[4,4′-bipyridine]-3-carboxamide] returned an IC50 in experiment [1] below 100 nM.
